According to patent US20240287047A1, “PESTICIDALLY ACTIVE DIAZINE-AMIDE COMPOUNDS” (SYNGENTA CROP PROTECTION AG, priority 2021, published 2024):

Columns and labels:
Format in all cases: in vivo
Spodoptera littoralis = test: Example B5: Spodoptera littoralis (Egyptian cotton leaf worm), cotton leaf discs, L1 larvae; details: foliar, 72 h, application rate of 200 ppm, 3 days after infestation, read-out: control in at least one of the three categories (mortality, anti-feedant effect, or growth inhibition)
Method: Cotton leaf discs were placed onto agar in 24-well microtiter plates and sprayed with aqueous test solutions prepared from 10,000 ppm DMSO stock solutions. After drying the leaf discs were infested with five L1 larvae. The samples were assessed for mortality, anti-feeding effect, and growth inhibition in comparison to untreated samples 3 days after infestation. Control of Spodoptera littoralis by a test sample is given when at least one of the categories mortality, anti-feedant effect, and growth inhibition is higher than the untreated sample.

Myzus persicae = test: Example B3: Myzus persicae (green peach aphid) intrinsic activity; details: 120 h, test rate of 12 ppm, 5 days after infestation
Method: Test compounds prepared from 10′000 ppm DMSO stock solutions were applied by pipette into 24-well microtiter plates and mixed with sucrose solution. The plates were closed with a stretched Parafilm. A plastic stencil with 24 holes was placed onto the plate and infested pea seedlings were placed directly on the Parafilm. The infested plate was closed with a gel blotting paper and another plastic stencil and then turned upside down. The samples were assessed for mortality 5 days after infestation.

Diabrotica balteata = test: Example B2: Diabrotica balteata (corn root worm), maize sprouts, L2 larvae; details: for percent control (mortality or growth inhibition) at 200 ppm: Diabrotica balteata, 96 h, application rate of 200 ppm, 4 days after infestation, read-out: control in at least one of the two categories (mortality or growth inhibition)
Method: Maize sprouts placed onto an agar layer in 24-well microtiter plates were treated with aqueous test solutions prepared from 10,000 ppm DMSO stock solutions by spraying. After drying, the plates were infested with L2 larvae (6 to 10 per well). The samples were assessed for mortality and growth inhibition in comparison to untreated samples 4 days after infestation.

Chilo suppressalis = test: Example B1: Chilo suppressalis (striped rice stemborer), artificial diet, L2 larvae; details: 144 h, application rate of 200 ppm, 6 days after infestation, read-out: control in at least one of the three categories (mortality, anti-feedant effect, or growth inhibition)
Method: 24-well microtiter plates with artificial diet were treated with aqueous test solutions prepared from 10,000 ppm DMSO stock solutions by pipetting. After drying, the plates were infested with L2 larvae (6-8 per well). The samples were assessed for mortality, anti-feeding effect, and growth inhibition in comparison to untreated samples 6 days after infestation. Control of Chilo suppressalis by a test sample is given when at least one of the categories mortality, anti-feedant effect, and growth inhibition is higher than the untreated sample.

Plutella xylostella = test: Example B4: Plutella xylostella (diamond back moth), artificial diet, eggs; details: Plutella xylostella, 192 h; application rate of 200 ppm; 8 days after infestation; read-out: control in at least one of the two categories (mortality or growth inhibition)
Method: 24-well microtiter plates with artificial diet were treated with aqueous test solutions prepared from 10′000 ppm DMSO stock solutions by pipetting. After drying, Plutella eggs were pipetted through a plastic stencil onto a gel blotting paper and the plate was closed with it. The samples were assessed for mortality and growth inhibition in comparison to untreated samples 8 days after infestation.

Q: For `C[C@@H](c1nccnc1-c1cnccn1)N(C)C(=O)c1cc(C(F)(F)F)cc(C(C)(C)C#N)c1` [Compound E12, 3-(1-cyano-1-methyl-ethyl)-N-methyl-N-[(1S)-1-(3-pyrazin-2-ylpyrazin-2-yl)ethyl]-5-(trifluoromethyl)benzamide], which percent control (mortality, anti-feedant effect or growth inhibition) at 200 ppm (Spodoptera littoralis) is on record?
A: ≥ 80%

Q: And the mortality at 12 ppm (Myzus persicae)?
A: ≥ 80%

Q: What about the percent control (mortality or growth inhibition) at 200 ppm (Diabrotica balteata) of the same molecule?
A: ≥ 80%

Q: Which results are given for `CC(NC(=O)c1cc(OC(F)F)cc(OC(F)F)c1)c1nccnc1-c1cnccn1` (stereo not shown) [Compound P2, 3,5-bis(difluoromethoxy)-N-[1-(3-pyrazin-2-ylpyrazin-2-yl)ethyl]benzamide]?
A: percent control (mortality, anti-feedant effect or growth inhibition) at 200 ppm (Chilo suppressalis): ≥ 80%; percent control (mortality, anti-feedant effect or growth inhibition) at 200 ppm (Spodoptera littoralis): ≥ 80%; mortality at 12 ppm (Myzus persicae): ≥ 80%; percent control (mortality or growth inhibition) at 200 ppm (Plutella xylostella): ≥ 80%; percent control (mortality or growth inhibition) at 200 ppm (Diabrotica balteata): ≥ 80%

Q: Which percent control (mortality, anti-feedant effect or growth inhibition) at 200 ppm (Chilo suppressalis) does the source give for `CC(NC(=O)c1cc(OC(F)(F)F)cc(C2(C#N)CC2)c1)c1nccnc1-c1cnccn1` (stereo not shown) [Compound P31] here?
A: ≥ 80%

Q: And the percent control (mortality, anti-feedant effect or growth inhibition) at 200 ppm (Spodoptera littoralis)?
A: ≥ 80%

Q: What about the mortality at 12 ppm (Myzus persicae) of the same molecule?
A: ≥ 80%

Q: What about the percent control (mortality or growth inhibition) at 200 ppm (Plutella xylostella) of the same molecule?
A: ≥ 80%

Q: What about the percent control (mortality or growth inhibition) at 200 ppm (Diabrotica balteata) of the same molecule?
A: ≥ 80%

Q: What does the source list for `CC(NC(=O)c1cc(C2CC2)nc(C(F)(F)F)c1)c1nccnc1-c1cnccn1` (stereo not shown) [Compound P11, 2-cyclopropyl-N-[1-(3-pyrazin-2-ylpyrazin-2-yl)ethyl]-6-(trifluoromethyl)pyridine-4-carboxamide]?
A: percent control (mortality, anti-feedant effect or growth inhibition) at 200 ppm (Chilo suppressalis): ≥ 80%; percent control (mortality, anti-feedant effect or growth inhibition) at 200 ppm (Spodoptera littoralis): ≥ 80%; percent control (mortality or growth inhibition) at 200 ppm (Plutella xylostella): ≥ 80%; percent control (mortality or growth inhibition) at 200 ppm (Diabrotica balteata): ≥ 80%

Q: `CC(NC(=O)c1cc(Cl)cc(S(C)(=O)=O)c1)c1nccnc1-c1cnccn1` (stereo not shown) [Compound P26, 3-chloro-5-methylsulfonyl-N-[1-(3-pyrazin-2-ylpyrazin-2-yl)ethyl]benzamide] was tested. Which percent control (mortality, anti-feedant effect or growth inhibition) at 200 ppm (Chilo suppressalis) did it give?
A: ≥ 80%

Q: And the percent control (mortality, anti-feedant effect or growth inhibition) at 200 ppm (Spodoptera littoralis)?
A: ≥ 80%

Q: And the mortality at 12 ppm (Myzus persicae)?
A: ≥ 80%

Q: What about the percent control (mortality or growth inhibition) at 200 ppm (Plutella xylostella) of the same molecule?
A: ≥ 80%

Q: And the percent control (mortality or growth inhibition) at 200 ppm (Diabrotica balteata)?
A: ≥ 80%

Q: What does the source list for `CC(NC(=O)c1cc(I)cc(C(F)(F)F)c1)c1nccnc1-c1cnc(Cl)cn1` (stereo not shown) [Compound P34, N-[1-[3-(5-chloropyrazin-2-yl)pyrazin-2-yl]ethyl]-3-iodo-5-(trifluoromethyl)benzamide]?
A: percent control (mortality, anti-feedant effect or growth inhibition) at 200 ppm (Chilo suppressalis): ≥ 80%; percent control (mortality, anti-feedant effect or growth inhibition) at 200 ppm (Spodoptera littoralis): ≥ 80%; percent control (mortality or growth inhibition) at 200 ppm (Plutella xylostella): ≥ 80%; percent control (mortality or growth inhibition) at 200 ppm (Diabrotica balteata): ≥ 80%

Q: `CC(NC(=O)c1cc(C(F)(F)F)cc(C(F)(F)F)c1)c1nccnc1-c1cnccn1` (stereo not shown) [Compound P1, N-[1-(3-pyrazin-2-ylpyrazin-2-yl)ethyl]-3,5-bis (trifluoromethyl)benzamide] was tested. Which percent control (mortality, anti-feedant effect or growth inhibition) at 200 ppm (Chilo suppressalis) did it give?
A: ≥ 80%

Q: And the percent control (mortality, anti-feedant effect or growth inhibition) at 200 ppm (Spodoptera littoralis)?
A: ≥ 80%

Q: And the percent control (mortality or growth inhibition) at 200 ppm (Plutella xylostella)?
A: ≥ 80%

Q: What about the percent control (mortality or growth inhibition) at 200 ppm (Diabrotica balteata) of the same molecule?
A: ≥ 80%

Q: Which percent control (mortality, anti-feedant effect or growth inhibition) at 200 ppm (Chilo suppressalis) does the source give for `CC(c1nccnc1-c1cnccn1)N(C)C(=O)c1cc(Cl)nc(C2(C#N)CC2)c1` (stereo not shown) [Compound P29, 2-chloro-6-(1-cyanocyclopropyl)-N-methyl-N-[1-(3-pyrazin-2-ylpyrazin-2-yl)ethyl]pyridine-4-carboxamide] here?
A: ≥ 80%

Q: And the percent control (mortality, anti-feedant effect or growth inhibition) at 200 ppm (Spodoptera littoralis)?
A: ≥ 80%

Q: What about the percent control (mortality or growth inhibition) at 200 ppm (Plutella xylostella) of the same molecule?
A: ≥ 80%

Q: And the percent control (mortality or growth inhibition) at 200 ppm (Diabrotica balteata)?
A: ≥ 80%

Q: How did the percent control (mortality, anti-feedant effect or growth inhibition) at 200 ppm (Chilo suppressalis) turn out when `C[C@H](NC(=O)c1cc(I)cc(C(F)(F)F)c1)c1nccnc1-c1cnccn1` [Compound E4, 3-iodo-N-[(1S)-1-(3-pyrazin-2-ylpyrazin-2-yl)ethyl]-5-(trifluoromethyl)benzamide] was run?
A: ≥ 80%

Q: And the percent control (mortality, anti-feedant effect or growth inhibition) at 200 ppm (Spodoptera littoralis)?
A: ≥ 80%

Q: And the percent control (mortality or growth inhibition) at 200 ppm (Plutella xylostella)?
A: ≥ 80%

Q: And the percent control (mortality or growth inhibition) at 200 ppm (Diabrotica balteata)?
A: ≥ 80%

Q: `CC(NC(=O)c1cc(C(F)F)cc(C(F)(F)F)c1)c1nccnc1-c1cnccn1` (stereo not shown) [Compound P10, 3-(difluoromethyl)-N-[1-(3-pyrazin-2-ylpyrazin-2-yl)ethyl]-5-(trifluoromethyl)benzamide] was tested. Which percent control (mortality, anti-feedant effect or growth inhibition) at 200 ppm (Chilo suppressalis) did it give?
A: ≥ 80%

Q: What about the percent control (mortality, anti-feedant effect or growth inhibition) at 200 ppm (Spodoptera littoralis) of the same molecule?
A: ≥ 80%

Q: And the percent control (mortality or growth inhibition) at 200 ppm (Plutella xylostella)?
A: ≥ 80%

Q: And the mortality at 50 ppm (Diabrotica balteata; Concentration 50 ppm, Diabrotica balteata (Example B32))?
A: 100%

Q: And the percent control (mortality or growth inhibition) at 200 ppm (Diabrotica balteata)?
A: ≥ 80%

Q: How did the percent control (mortality, anti-feedant effect or growth inhibition) at 200 ppm (Chilo suppressalis) turn out when `CC(NC(=O)c1cc(Cl)cc(I)c1)c1nccnc1-c1cnccn1` (stereo not shown) [Compound P13, 3-chloro-5-iodo-N-[1-(3-pyrazin-2-ylpyrazin-2-yl)ethyl]benzamide] was run?
A: ≥ 80%

Q: And the percent control (mortality, anti-feedant effect or growth inhibition) at 200 ppm (Spodoptera littoralis)?
A: ≥ 80%

Q: And the percent control (mortality or growth inhibition) at 200 ppm (Plutella xylostella)?
A: ≥ 80%

Q: And the percent control (mortality or growth inhibition) at 200 ppm (Diabrotica balteata)?
A: ≥ 80%

Q: For `CC(NC(=O)c1cc(OC(F)F)cc(C2(C#N)CC2)c1)c1nccnc1-c1cnccn1` (stereo not shown) [Compound P32, 3-(1-cyanocyclopropyl)-5-(difluoromethoxy)-N-[1-(3-pyrazin-2-ylpyrazin-2-yl)ethyl]benzamide], which percent control (mortality, anti-feedant effect or growth inhibition) at 200 ppm (Chilo suppressalis) is on record?
A: ≥ 80%

Q: And the percent control (mortality, anti-feedant effect or growth inhibition) at 200 ppm (Spodoptera littoralis)?
A: ≥ 80%

Q: What about the mortality at 12 ppm (Myzus persicae) of the same molecule?
A: ≥ 80%

Q: What does the source list for `CC(NC(=O)c1cc(Br)cc(I)c1)c1nccnc1-c1cnccn1` (stereo not shown) [Compound P24, 3-bromo-5-iodo-N-[1-(3-pyrazin-2-ylpyrazin-2-yl)ethyl]benzamide]?
A: percent control (mortality, anti-feedant effect or growth inhibition) at 200 ppm (Chilo suppressalis): ≥ 80%; percent control (mortality, anti-feedant effect or growth inhibition) at 200 ppm (Spodoptera littoralis): ≥ 80%; percent control (mortality or growth inhibition) at 200 ppm (Plutella xylostella): ≥ 80%; percent control (mortality or growth inhibition) at 200 ppm (Diabrotica balteata): ≥ 80%

Q: `CC(NC(=O)c1cc(C(F)(F)F)cc(C(C)(C)C#N)c1)c1nccnc1-c1cnccn1` (stereo not shown) [Compound P5, 3-(1-cyano-1-methyl-ethyl)-N-[1-(3-pyrazin-2-ylpyrazin-2-yl)ethyl]-5-(trifluoromethyl)benzamide] was tested. Which percent control (mortality, anti-feedant effect or growth inhibition) at 200 ppm (Chilo suppressalis) did it give?
A: ≥ 80%

Q: And the percent control (mortality, anti-feedant effect or growth inhibition) at 200 ppm (Spodoptera littoralis)?
A: ≥ 80%

Q: And the percent control (mortality or growth inhibition) at 200 ppm (Plutella xylostella)?
A: ≥ 80%

Q: What about the percent control (mortality or growth inhibition) at 200 ppm (Diabrotica balteata) of the same molecule?
A: ≥ 80%

Q: How did the percent control (mortality, anti-feedant effect or growth inhibition) at 200 ppm (Chilo suppressalis) turn out when `CC(NC(=O)c1cc(C(F)(F)F)cc(C(C)(C)C#N)c1)c1nccnc1-c1cnc(Cl)cn1` (stereo not shown) [Compound P37, N-[1-[3-(5-chloropyrazin-2-yl)pyrazin-2-yl]ethyl]-3-(1-cyano-1-methyl-ethyl)-5-(trifluoromethyl)benzamide] was run?
A: ≥ 80%

Q: What about the percent control (mortality, anti-feedant effect or growth inhibition) at 200 ppm (Spodoptera littoralis) of the same molecule?
A: ≥ 80%

Q: What about the percent control (mortality or growth inhibition) at 200 ppm (Plutella xylostella) of the same molecule?
A: ≥ 80%

Q: What about the percent control (mortality or growth inhibition) at 200 ppm (Diabrotica balteata) of the same molecule?
A: ≥ 80%

Q: How did the percent control (mortality, anti-feedant effect or growth inhibition) at 200 ppm (Chilo suppressalis) turn out when `CC(NC(=O)c1cc(C(F)(F)F)nc(C2(C#N)CC2)c1)c1nccnc1-c1cnccn1` (stereo not shown) [Compound P4] was run?
A: ≥ 80%

Q: What about the percent control (mortality, anti-feedant effect or growth inhibition) at 200 ppm (Spodoptera littoralis) of the same molecule?
A: ≥ 80%

Q: And the percent control (mortality or growth inhibition) at 200 ppm (Plutella xylostella)?
A: ≥ 80%

Q: And the percent control (mortality or growth inhibition) at 200 ppm (Diabrotica balteata)?
A: ≥ 80%

Q: Which results are given for `CC(NC(=O)c1cc(Cl)cc(Cl)c1)c1nccnc1-c1cnccn1` (stereo not shown) [Compound P8, 3,5-dichloro-N-[1-(3-pyrazin-2-ylpyrazin-2-yl)ethyl]benzamide]?
A: percent control (mortality, anti-feedant effect or growth inhibition) at 200 ppm (Chilo suppressalis): ≥ 80%; percent control (mortality, anti-feedant effect or growth inhibition) at 200 ppm (Spodoptera littoralis): ≥ 80%; percent control (mortality or growth inhibition) at 200 ppm (Plutella xylostella): ≥ 80%; percent control (mortality or growth inhibition) at 200 ppm (Diabrotica balteata): ≥ 80%
